From patent publication US20260242365A1, “USES OF CERTAIN 1,4-OXAZEPANE-2-CARBOXAMIDES AS DPP1 INHIBITORS” (Insmed Incorporated, priority 2023, published 2026) come the findings set out here.

For this assay, the target named is T1, mouse DPP1 (Mus musculus, UniProt P97821).
T1 construct: Test articles were applied to active mouse DPP1 enzyme; purchased R&D Systems
The experiment in a line: Mouse DPP1 Enzyme IC50 Assay. Format: biochemical. Particulars: active mouse DPP1 enzyme, H-Gly-Arg-AMC substrate. The procedure: Test articles were applied to active mouse DPP1 enzyme (R&D Systems; Minneapolis, MN) in Assay Buffer (50 mM MES pH 5.5, 50 mM NaCl, 5 mM DTT) in a total reaction volume of 125 μL. 25 μL of compound in Assay Buffer plus 5% DMSO was first added to 50 μL of active mouse DPP1 enzyme at a concentration of […] and allowed to pre-incubate for 10 minutes at 37° C. after which 50 μL of 1000 μM H-Gly-Arg-AMC substrate (Bachem; St. Torrance, CA) was added, giving final substrate concentration of 400 μM and a final DMSO concentration of 1%. Substrate cleavage was measured for 90 minutes at 37° C., with fluorescence at Excitation/Emission 350/450 nm measured every 5 minutes. DPP1 concentration was interpolated based on its activity relative to a standard curve of recombinant active mouse DPP1 enzyme. IC50 values for each compound were calculated via the XLFit (IDBS Version 5.3.1.3) Add-On to Microsoft Excel using the four parameter fit equation y= (A+ ((B−A)/(1+ ((C/x)^D)))), which appears as equation number 205 (4 Parameter Logistic Model or Sigmoidal Dose-Response Model) in XLFit. Default constraints were used for each Parameter. IC50 was defined as the compound concentration at which 50% of enzyme activity was inhibited when compared to the no-compound control.

T1 sequence (P97821 25-134 limits assumed): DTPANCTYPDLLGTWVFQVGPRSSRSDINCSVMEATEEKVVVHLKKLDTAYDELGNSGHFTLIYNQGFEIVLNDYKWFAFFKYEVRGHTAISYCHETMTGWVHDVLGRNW
T1 sequence (P97821 231-393 limits assumed): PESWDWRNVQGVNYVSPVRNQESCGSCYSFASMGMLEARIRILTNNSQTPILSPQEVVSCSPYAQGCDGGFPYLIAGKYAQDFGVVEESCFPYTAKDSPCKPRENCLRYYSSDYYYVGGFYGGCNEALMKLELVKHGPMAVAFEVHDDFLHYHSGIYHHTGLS
T1 sequence (P97821 394-462 limits assumed): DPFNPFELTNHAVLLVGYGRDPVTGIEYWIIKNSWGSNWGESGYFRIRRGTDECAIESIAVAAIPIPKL

`Cn1c(=O)oc2ccc(-c3ccc(C[C@@H](C#N)NC(=O)[C@@H]4CNCCCO4)c(F)c3)cc21` [INSM-204] gave an IC50 of 5.6 ± 0.4 nM.
